Earlier results on four compounds are cited in patent US20070142460A1, “Compounds, compositions and methods” (priority 2003, published 2007).

What is called GI50 is the concentration that inhibits growth by half.

Molecules are shown by their SMILES.

For this data set, the system named is A549 cells.
Turning to `O=c1[nH]cc(F)c(=O)[nH]1` [5-fluorouracil], the concentration for 50% growth inhibition (GI50) was 1000 nM. As to `COc1cccc2c1C(=O)c1c(O)c3c(c(O)c1C2=O)C[C@@](O)(C(=O)CO)C[C@@H]3O[C@H]1C[C@H](N)[C@H](O)[C@H](C)O1` [doxorubicin], the GI50 is 63 nM. Regarding `NC(=O)NO` [hydroxyurea], the 50% growth inhibitory concentration (GI50) is 500000 nM. On to `CC(=O)O[C@H]1C(=O)[C@@]2(C)[C@H]([C@H](OC(=O)c3ccccc3)[C@]3(O)C[C@H](OC(=O)[C@H](O)[C@@H](NC(=O)c4ccccc4)c4ccccc4)C(C)=C1C3(C)C)[C@]1(OC(C)=O)CO[C@@H]1C[C@@H]2O` [paclitaxel], for which the GI50 is 4 nM.
